The record followed here is patent publication US20050043396A1, “5-Benzoylamino-1,3-dioxacyclanes, the method for preparing the same and their use as PKC inhibitor” (priority 2003, published 2005).

Marks after values point to notes of the source that are not given here.

The assay deals with model of the ear swilling of mice. As to the kind of experiment: Anti-inflammatory activity: xylene-induced ear swelling of mice (recognized PKC inhibitor model). The class given is in vivo, Male Kunming species mice. As for the experimental part:
Based on the knowledge of cycloacetals as structural types of the PKC inhibitors, the PKC inhibitor model recognized (i.e. model of the ear swilling of mice) was adopted to evaluate the activity of cycloacetals 1-21 as PKC inhibitor.
In the present invention the model of the ear swilling of mice was used to evaluate the anti-inflammatory activity of 5-benzoylamino-1,3-dioxscyclane compounds. The compounds of the present invention were suspended in CMC solution (5%) at the ratio of […], while the positive control was the suspension of aspirin, and CMC solution (5%) at the ratio of […], and the vehicle control was CMC solution (5%). Male Kunming species mice (from Animal Department of Beijing Medical University, grade 2) with weight about 20-25 g, which were randomly divided into treatment group, vehicle control group, and positive control group with 10 mice each group (food deprivation for 8 hours before testing, drinking unlimited) were administered orally once. 30 minutes after the administration, xylene (0.02 ml) was smeared on the left exterior auricular of the mice, and 4 hours later, the mice were killed by dislocation of cervical vertebra. Double circular pinnae were taken from two ears using 9 mm punching bear, and the swelling was determined by the weight variation of the two pinnae.
An adaptation of the method of Gad et al (1986) was employed for sensitization. Mice were allowed to acclimate for a week after arrival in the laboratory, then were screened to remove any from testing which have ears that appear red or swollen. Male Kunming species, 6 to 8 weeks old, about 20-25 g, were shaved and tape stripped at the start of each study. Mice were randomly divided into test group, vehicle control group, and positive control group with 10 mice each one.
[…] The application was allowed to dry before the animal was returned to its cage. Mice were killed 4 hours later, and a 9-mm Keyes cutaneous punch was used to obtain uniform tissue sections for weight variation which indicating the swelling degree. Groups were statistically analyzed using the Wilk-Shapiro test for normality and the paired parametric Student t test with a significance level of p<0.05. Data were expressed as the mean difference plus or minus the standard error.
Each mouse in the vehicle control mice group was administered orally 0.2 ml of carboxymethyl cellulose (0.5%) once a day, while each mouse in the positive control group was administered orally suspension of 0.6 mg of aspirin in 0.2 ml of carboxymethyl cellulose (0.5%) once a day, and each mouse in the test group was administed orally the suspension of 0.6 mg of the compounds of the present invention in 0.2 ml of carboxymethyl cellulose (0.5%) once a day. The applications were repeated for three consecutive days.
Administered with the same manner and dosage.

[1] abbreviates: administered orally 1 time, 21 mg/kg, n = 10 (Table 2).
The mark [2] stands for this setting: administered orally 1 time, 30 mg/kg, n = 10 (Table 2).
Setting [3] is: oral once a day for 3 consecutive days, Dosage = 30 mg/Kg, n = 10, weight difference of 9 mm ear punches, xylene.

On to `O=CCC1OCCC(NC(=O)c2ccccc2)CO1` (centres unmarked) [Compound 40], for which, under setting [1], the “Weight variation (X ± SD mg)” value is listed as 3.55 ± 1.69^3,6) mg.

Consider `COC(CC1OCCC(NC(=O)c2ccccc2)CO1)OC` (centres unmarked) [Compound 18], for which, under setting [1], the “Weight variation (X ± SD mg)” value is on record as 4.31 ± 1.75^1) mg.

`C[C@@H]1O[C@@H](c2ccc([N+](=O)[O-])cc2)OC[C@H]1NC(=O)c1ccccc1` [Compound 24, (2S,4S,5R)-2-p-nitrophenyl-5-benzoylamino-4-methyl-1,3-dioxane]: the “Weight variation (X ± SD mg)” value by setting is: (dosage-effect relationship, 2.3 mg/Kg (Table 3)) 3.21 ± 1.68 mg; (dosage-effect relationship, 7 mg/Kg (Table 3)) 1.81 ± 0.63 mg; (dosage-effect relationship, 30 mg/Kg (Table 3)) 1.43 ± 0.89 mg.

In the case of `O=CCC1OCC(NC(=O)c2ccccc2)CO1` (centres unmarked) [Compound 38], under setting [2], the “Weight variation (X ± SD mg)” value is recorded as 5.81 ± 2.46 mg.

As for `COC(CC1OCC(NC(=O)c2ccccc2)C(C)O1)OC` (centres unmarked) [Compound 9], the “Weight variation (X ± SD mg)” value by setting is: under setting [2], 3.28 ± 2.06^3,5) mg; under setting [3], 3.97 ± 1.49^1) mg.

On to `CC1OC(CC=O)OCC1NC(=O)c1ccccc1` (centres unmarked) [Compound 39], for which the “Weight variation (X ± SD mg)” value under setting [2] was 4.84 ± 2.30^1) mg.

With `CC(=O)Oc1ccccc1C(=O)O` [Aspirin, aspirin, reference compound], the “Weight variation (X ± SD mg)” value by setting is: under setting [2], 4.17 ± 1.80^1) mg; under setting [3], 4.26 ± 1.44^1) mg.
